According to ChEMBL document CHEMBL1201862, “PubChem BioAssay data set” (2004):
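These data come from cells grown in 96-well plates and exposed to compound for 48 hours at five concentrations. GI50 = concentration required for 50% inhibition of growth.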 Active and inactive are the calls of the source. No stated cut-off is given here; in the data, active = GI50 up to about 1.1 µM and inactive = higher.

What was measured:
Experiment in all cases: NCI tumour cell line growth inhibition, 48 h
NCI/ADR-RES = system: NCI/ADR-RES
OVCAR-3 = system: OVCAR-3
UACC-62 = system: UACC-62
UO-31 = system: UO-31
OVCAR-8 = system: OVCAR-8
MDA-MB-231 = system: MDA-MB-231
RXF 393 = system: RXF 393
SK-MEL-28 = system: SK-MEL-28
HCT-15 = system: HCT-15
PC-3 = system: PC-3
HOP-92 = system: HOP-92
ACHN = system: ACHN
CCRF-CEM = system: CCRF-CEM
HCT-116 = system: HCT-116
M14 = system: M14
SNB-75 = system: SNB-75
NCI-H226 = system: NCI-H226
MOLT-4 = system: MOLT-4
MDA-MB-435 = system: MDA-MB-435
TK-10 = system: TK-10

Structure (SMILES)	GI50 (NCI/ADR-RES)	GI50 (OVCAR-3)	GI50 (UACC-62)	GI50 (UO-31)	GI50 (OVCAR-8)	GI50 (MDA-MB-231)	GI50 (RXF 393)	GI50 (SK-MEL-28)	GI50 (HCT-15) [µM]	GI50 (PC-3)	GI50 (HOP-92)	GI50 (ACHN)	GI50 (CCRF-CEM)	GI50 (HCT-116)	GI50 (M14)	GI50 (SNB-75)	GI50 (NCI-H226)	GI50 (MOLT-4)	GI50 (MDA-MB-435)	GI50 (TK-10)
CC(/C=C/C=C\C=C\C=C(/C)C(=O)NC(C)CO)=C\C(C)C(O)/C(C)=C/C(C)CCc1ccccc1 (stereo not given)	15.6 µM (inactive)	1.4 µM (inactive)	8.61 µM (inactive)	5.11 µM (inactive)	6.82 µM (inactive)	14.6 µM (inactive)	12.9 µM (inactive)	12.9 µM (inactive)	12.8	7.94 µM (inactive)	5.41 µM (inactive)	0.274 µM (active)	8.85 µM (inactive)	0.127 µM (active)	8 µM (inactive)	13 µM (inactive)	8.65 µM (inactive)	7.46 µM (inactive)	12.8 µM (inactive)	14 µM (inactive)
COC(=O)C(Cc1ccc2c(c1)CCC2)Cc1ccc2c(c1)CCC2	> 100 µM (inactive)	85.1 µM (inactive)	> 100 µM (inactive)	53.3 µM (inactive)	53.6 µM (inactive)	> 100 µM (inactive)	31 µM (inactive)	94.4 µM (inactive)	89.7	73.3 µM (inactive)	31.3 µM (inactive)	68.7 µM (inactive)	32.4 µM (inactive)	66.2 µM (inactive)	80 µM (inactive)	71.3 µM (inactive)	42.5 µM (inactive)	40.3 µM (inactive)	48.8 µM (inactive)	> 100 µM (inactive)
O=C1C(N2CCN(c3ccccn3)CC2)=C(Cl)C(=O)c2ncccc21	5.22 µM (inactive)	1.89 µM (inactive)	2.54 µM (inactive)	3.27 µM (inactive)	> 4.45 µM (inactive)	3.63 µM (inactive)	1.98 µM (inactive)	2.89 µM (inactive)	1.95	> 9.16 µM (inactive)	1.58 µM (inactive)	2.14 µM (inactive)	1.32 µM (inactive)	1.71 µM (inactive)	1.98 µM (inactive)	> 10 µM (inactive)	> 10 µM (inactive)	1.83 µM (inactive)	> 3.74 µM (inactive)	3.24 µM (inactive)
[N-]=[N+]=Nc1cc(=O)[nH]nc1-c1ccccc1	> 100 µM (inactive)	> 100 µM (inactive)	> 100 µM (inactive)	> 100 µM (inactive)	> 100 µM (inactive)	> 100 µM (inactive)	> 100 µM (inactive)	> 100 µM (inactive)	> 100	> 100 µM (inactive)	> 100 µM (inactive)	> 100 µM (inactive)	> 100 µM (inactive)	> 100 µM (inactive)	> 100 µM (inactive)	61.4 µM (inactive)	> 100 µM (inactive)	> 100 µM (inactive)	> 100 µM (inactive)	> 100 µM (inactive)
COC(=O)[C@]1(C)CC[C@]2(C)CC[C@]3(C)C4[C@H]5Oc6c(cc7c(c6C)CCC6[C@@]7(C)CC[C@@]7(C)C8[C@](C)(CCC[C@@]8(C)C(=O)OC)CC[C@]67C)O[C@H]5c5c(cc6c(c5C)O[C@@]5(C)C7=CC=C8[C@@](C)(CC[C@@]9(C)[C@@H]%10C[C@](C)(C(=O)OC)CC[C@]%10(C)CC[C@]89C)C7=CC(=O)[C@@]5(O)O6)[C@]4(C)CC[C@@]3(C)C2C1 (stereo not given in full)	> 12.5 µM (inactive)	2.64 µM (inactive)	2.32 µM (inactive)	2.52 µM (inactive)	2.63 µM (inactive)	3.11 µM (inactive)	1.91 µM (inactive)	7.53 µM (inactive)	3.45	4.15 µM (inactive)	1.92 µM (inactive)	3.94 µM (inactive)	1.19 µM (inactive)	2.34 µM (inactive)	4.01 µM (inactive)	2.79 µM (inactive)	> 12.5 µM (inactive)	1.39 µM (inactive)	3.56 µM (inactive)	2.6 µM (inactive)
COc1cc2c(c3oc4c(O)cccc4c(=O)c13)CC(C(C)(O)CCl)O2 (stereo not given)	0.679 µM (active)	1.21 µM (inactive)	0.728 µM (active)	0.807 µM (active)	0.219 µM (active)	1.55 µM (inactive)	0.834 µM (active)	0.968 µM (active)	1.04	1.22 µM (inactive)	2.45 µM (inactive)	0.114 µM (active)	0.0277 µM (active)	0.157 µM (active)	0.256 µM (active)	3.35 µM (inactive)	5.81 µM (inactive)	< 0.01 µM (active)	0.13 µM (active)	12.1 µM (inactive)
CSC12c3cc(C)n(-c4ccc(I)cc4)c3CC(C)(C)CN1C(=O)C2Oc1ccccc1 (stereo not given)	> 100 µM (inactive)	> 100 µM (inactive)	> 100 µM (inactive)	> 100 µM (inactive)	> 100 µM (inactive)	> 100 µM (inactive)	> 100 µM (inactive)	> 100 µM (inactive)	> 100	98.6 µM (inactive)	> 100 µM (inactive)	> 100 µM (inactive)	> 100 µM (inactive)	48.6 µM (inactive)	> 100 µM (inactive)	> 100 µM (inactive)	> 100 µM (inactive)	> 63.1 µM (inactive)	> 100 µM (inactive)	> 100 µM (inactive)
Cc1cc2c(cc1Cl)SC(N/N=C(\N)c1ccc(Cl)cc1)=NS2(=O)=O	> 100 µM (inactive)	34.7 µM (inactive)	59.7 µM (inactive)	42.7 µM (inactive)	45.4 µM (inactive)	76.6 µM (inactive)	90.2 µM (inactive)	54.7 µM (inactive)	46.5	41 µM (inactive)	10.4 µM (inactive)	84.3 µM (inactive)	43.3 µM (inactive)	46.2 µM (inactive)	81.5 µM (inactive)	74.5 µM (inactive)	> 100 µM (inactive)	45.7 µM (inactive)	61.8 µM (inactive)	> 100 µM (inactive)
C[C@@H]1OCC(O)C([C@H]2OC(c3ccccc3)=N[C@H]2CO)O1 (stereo not given in full)	> 100 µM (inactive)	> 100 µM (inactive)	> 100 µM (inactive)	> 100 µM (inactive)	> 100 µM (inactive)	> 100 µM (inactive)	> 100 µM (inactive)	> 100 µM (inactive)	> 100	> 100 µM (inactive)	> 100 µM (inactive)	> 100 µM (inactive)	> 100 µM (inactive)	> 100 µM (inactive)	> 100 µM (inactive)	72.1 µM (inactive)	> 100 µM (inactive)	> 100 µM (inactive)	> 100 µM (inactive)	> 100 µM (inactive)
CCOC(=O)CCC1(C(=O)O[C@@H]2C[C@H](C)CC[C@H]2C(C)C)CCCCC1=O (stereo not given in full)	55.2 µM (inactive)	45.8 µM (inactive)	94.6 µM (inactive)	> 100 µM (inactive)	> 100 µM (inactive)	> 100 µM (inactive)	55.7 µM (inactive)	74 µM (inactive)	41.7	39.3 µM (inactive)	52.4 µM (inactive)	74.8 µM (inactive)	46.1 µM (inactive)	41.7 µM (inactive)	56.5 µM (inactive)	42 µM (inactive)	> 100 µM (inactive)	29.2 µM (inactive)	74.1 µM (inactive)	56.4 µM (inactive)
